Measured values published in ChEMBL document CHEMBL6177940, “Therapeutic upregulation of DNA repair pathways: strategies and small molecule activators” (RSC Med Chem, 2024).
pEC50, pIC50: −log10 of the molar value.

Assays:
[1] = Activation of rat liver AMPK
[2] = Induction of DNA repair activity in human SUM149PT cells harboring BRCA1 mutant co-expressing GFP reporter gene at 1 uM relative to control; assay type: functional
[3] = Activation of Flag/His-tagged human recombinant OGG1 (1 to 345 residues) by fluorescence based analysis
HCC1806 = assay: Antiproliferative activity against human HCC1806 cells assessed as reduction in cell viability incubated for 72 hrs by MTT assay; assay type: functional, cell-based; conditions: HCC1806, 72 h
[4] = Activation of MTH1 (unknown origin); set-up: species or system Homo sapiens
Mus musculus [5] = species: Mus musculus; assay: Reversal of oxidative stress-induced DNA damage in mouse model assessed as increase in expression of APE1 by measuring fold change
Mus musculus [6] = species: Mus musculus; assay: Reversal of oxidative stress-induced DNA damage in mouse model assessed as increase in expression of XRCC1 by measuring fold change
Mus musculus [7] = species: Mus musculus; assay: Reversal of oxidative stress-induced DNA damage in mouse model assessed as increase in expression of OGG1 by measuring fold change
HCC1937 = assay: Antitumor activity against human HCC1937 cells harboring BRAC1 mutant xenografted in NOD/SCID mouse assessed as increase in survival rate at 250 mg/kg, ip measured after 60 days relative to control; assay type: functional; conditions: time 60 day
[8] = Induction of DNA repair activity in human SUM149PT cells harboring BRCA1 mutant co-expressing GFP reporter gene at 100 uM relative to control; assay type: functional
[9] = Upregulation of OGG1 expression in mouse MCT cells assessed as fold increase at 2 mM
[10] = Upregulation of BRCA1 expression in mouse Bone marrow cells at 5 uM; assay type: functional, Bone marrow cell
[11] = Upregulation of BRCA2 expression in mouse Bone marrow cells at 5 uM; assay type: functional, Bone marrow cell
[12] = target: T1, NAD-dependent protein deacetylase sirtuin-1 (Homo sapiens) (UniProt Q96EB6); assay: Activation of N-terminal Hex/Histidine-tagged human SIRT1 extracted from Escherichia coli BL21 (DE3) by Fluorescence polarization assay; conditions: filed as activator
T1 sequence (whole entry): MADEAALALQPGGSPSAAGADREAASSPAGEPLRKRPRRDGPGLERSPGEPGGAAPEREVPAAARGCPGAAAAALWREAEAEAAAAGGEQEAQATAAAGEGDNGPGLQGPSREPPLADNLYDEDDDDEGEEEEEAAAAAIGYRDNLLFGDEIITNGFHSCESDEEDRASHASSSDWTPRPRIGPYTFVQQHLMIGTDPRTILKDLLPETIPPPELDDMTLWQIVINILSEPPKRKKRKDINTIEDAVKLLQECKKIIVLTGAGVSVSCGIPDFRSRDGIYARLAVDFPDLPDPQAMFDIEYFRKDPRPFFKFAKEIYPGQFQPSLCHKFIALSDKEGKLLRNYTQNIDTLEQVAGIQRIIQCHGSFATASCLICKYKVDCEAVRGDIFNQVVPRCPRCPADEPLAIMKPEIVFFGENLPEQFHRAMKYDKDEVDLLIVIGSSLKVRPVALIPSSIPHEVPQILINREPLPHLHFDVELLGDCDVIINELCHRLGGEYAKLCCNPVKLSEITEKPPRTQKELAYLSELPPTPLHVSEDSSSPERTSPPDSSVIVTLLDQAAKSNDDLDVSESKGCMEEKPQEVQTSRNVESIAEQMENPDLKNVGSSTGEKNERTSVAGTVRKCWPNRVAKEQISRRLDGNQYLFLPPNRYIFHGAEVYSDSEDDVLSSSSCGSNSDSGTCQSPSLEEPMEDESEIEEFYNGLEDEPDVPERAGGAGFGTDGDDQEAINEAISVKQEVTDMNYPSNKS

[13] = Upregulation of OGG1 level in human A549 cells at 30 uM measured for 48 hrs relative to control; assay type: functional

N#Cc1c(O)c2c(-c3ccc(-c4ccccc4O)cc3)csc2[nH]c1=O
pEC50 [1]: 6.94

CC(=O)c1ccc(S(=O)(=O)NC(=O)NC2CCCCC2)cc1 [ACETOHEXAMIDE]
Activity [2]: 90%

CNc1nnc(C)c2c1cc(-c1ccc(F)cc1)n2C
pEC50 [3]: 5.29

O=C(Nc1ccc(CN2CCOCC2)c(C(F)(F)F)c1)c1ccc(C#Cc2cccc3cnccc23)cn1
pIC50 (HCC1806): 5.00
pEC50 [4]: 5.26

Cc1cc(N[C@@H](C)C(=O)Nc2ccccc2)nc(Nc2ccccc2)n1
pEC50 [3]: 5.39

O=c1c(O)c(-c2ccc(O)c(O)c2)oc2cc(O)cc(O)c12 [QUERCETIN]
fold change (FC) (Mus musculus [5]): 2
fold change (FC) (Mus musculus [6]): 2
fold change (FC) (Mus musculus [7]): 2

NC(CO)C(=O)NNCc1ccc(O)c(O)c1O (stereo not given) [BENSERAZIDE]
Activity (HCC1937): <=70%
Activity [8]: 60%

Nc1ncnc2c1ncn2[C@H]1O[C@@H](COP(=O)(O)O)[C@H](O)[C@@H]1O
pEC50 [1]: 5.22

NC(=O)c1ncn([C@H]2O[C@@H](COP(=O)(O)O)[C@H](O)[C@@H]2O)c1N
fold change (FC) [9]: 5

COc1cc(/C=C/C(=O)CC(=O)/C=C/c2ccc(O)c(OC)c2)ccc1O [CURCUMIN]
Activity [10]: 170%
Activity [11]: 170%

COc1cc(C(=O)Nc2ccccc2-c2cn3c(CN4CCNCC4)csc3n2)cc(OC)c1OC
EC1.5 [12]: 2.9 µM

Cc1nc(-c2cccnc2)sc1C(=O)Nc1ccccc1-c1cn2c(CN3CCOCC3)csc2n1
EC1.5 [12]: 0.43 µM

Cc1cnc(N2CCN3CCCC3C2)nc1Oc1ccc(-n2ccnc2)cc1 (stereo not given)
pEC50 [3]: 5.34

OC(Cn1ccnc1)(c1ccc(Cl)cc1Cl)C1CCCCC1 (stereo not given)
pEC50 [3]: 5.30
Activity [13]: 142.3%
